Data published in US20260069653A1, “COMPLEMENT INHIBITOR DOSING REGIMENS” (Apellis Pharmaceuticals, Inc., priority 2021, published 2026).
Square brackets hold non-standard residues; d marks the D form. Trp(5-F) = N[C@@H](Cc1c[nH]c2ccc(F)cc12)C(=O)O; Trp(5-Me) = Cc1ccc2[nH]cc(C[C@H](N)C(=O)O)c2c1; Trp(6-F) = N[C@@H](Cc1c[nH]c2cc(F)ccc12)C(=O)O; Bpa = N[C@@H](Cc1ccc(C(=O)c2ccccc2)cc1)C(=O)O; 1Nal = N[C@@H](Cc1cccc2ccccc12)C(=O)O; 2Nal = N[C@@H](Cc1ccc2ccccc2c1)C(=O)O; Igl = N[C@H](C(=O)O)C1Cc2ccccc2C1

Assays:
complement activation = conditions: fold more active than compstatin amidated at the C-terminus; published data and assays; cited from earlier work
[1] = Serum concentration of PEG after single IV infusion, ascending dose study; type: in vivo, human; conditions: for peak concentration (Cmax), mean serum concentration: healthy subjects
[2] = system: alternative complement pathway hemolytic activity (AH50); assay: AH50 hemolytic assay on serum after single IV infusion; type: in vivo, human
Experimental: AH50 Method: AH50 was measured by a hemolytic assay based on lysis of rabbit red blood cells (RA) due to activation of complement on the cell's surface. The AH50 (50% Alternative Complement Hemolytic dose) was determined for each component by adding a limiting amount of the test serum or plasma. For this assay, the buffers are created such as to block activity of the classical pathway, which requires calcium. Serial dilutions of the test specimen were mixed with equal volumes of the RA. This functional assay measured the amount of hemoglobin that was released when the target cells were lysed by the action of complement, and from this, the percentage of the cells that had been lysed was calculated. The major peak of the hemoglobin spectrum was read at 415 nm wavelength. For each assay the run was verified with a five-point standard and five points of characterized QC control.
AH50 Calculations: For verifiable continuity between assay runs, the AH50 assay was performed using a human serum standard with known AH50 activity. […] If the dilution series produced lysis that spanned the 50% point, the three points closest to the 50% point were used to determine the slope and intercept of the line by linear regression. If the percent lysis was very low and none of the dilutions produced 50% lysis, then the two highest points in the series were used, because the slope changes drastically as the sigmoid curve reaches its lower limit. Each specimen from the study was diluted in the same manner and individual 50% lysis points determined by linear regression.

[3] = system: total complement hemolytic activity (CH50); assay: CH50 after single IV infusion; type: in vivo, human
C3a = C3a levels (ELISA) after single IV infusion; type: in vivo, human
Experimental: C3a Split Product Testing: C3a was measured by ELISA (BD Pharmingen optEIA) using microtiter plates precoated with specific monoclonal antibodies against C3a. The standards, controls and test specimens were diluted and placed in duplicate into the wells and incubated to allow binding of the split products to the antibodies in the well. After washing away unbound proteins, a second anti-split products antibody, conjugated to an enzyme (horseradish peroxidase) was allowed to react with the split products bound to the first antibody on the plate. After an appropriate incubation time and washing, a chromogenic substrate for the enzyme was added to the wells, and the intensity of color that developed was determined spectrophotometrically. Three QC specimens were run on every assay.
C3a ELISA Calculations: The optical densities (OD) for each of the wells containing the standards for the assay were entered as the dependent variables (Y) in a linear regression calculation (Microsoft Excel) in which the concentrations of the standards (provided by the kit manufacturer, BD Pharmingen) were the independent variables (X). The slope (m) and intercept (b) obtained from the regression analysis on a log-log were then used to calculate the concentrations of the unknowns (controls and test specimens). The formula for a straight line was used to calculate the unknown values using a log/log solution: LnY=mLnX+b, solved for X: X=exp (LnY−b)/m*dilution.

acute hemolysis [4] = assay: LDH during intensive dosing for acute hemolysis in PNH patients; type: in vivo, human
Description: (§1) Eligibility criteria for the intensive dosing regimen included lactate dehydrogenase (LDH) >2× the upper limit of normal (ULN) and one new or worsening sign or symptom of hemolysis (e.g., decreased hemoglobin (Hb), hemoglobinuria, or fatigue).
(§2) Patients who experienced additional acute hemolysis events after receiving intensive PEG treatment received additional doses of intensive SC PEG or intensive IV PEG. […] Analyzed data relates to the first event if a patient experienced multiple acute hemolysis events.
(§3) Levels of Hb (on day 1) and LDH (on day 1, day 2, days 7-12, days 14-19) during the event of acute hemolysis were determined. […] For each patient, at least 6 days were between the measurements on day 7-12 and day 14-19. Safety was evaluated by the incidence and severity of adverse events.

acute hemolysis [5] = assay: Hemoglobin during intensive dosing for acute hemolysis in PNH patients; type: in vivo, human; conditions: patients with and without RBC transfusion (FIG. 6)
Description: as §1, §2, §3

[6] = Safety of intensive dosing in PNH patients; type: in vivo, human; conditions: intensive PEG treatment
Description: as §1, §2, §3

[7] = human, in vivo
Experimental: (§4) Subjects were monitored during a safety period from Day 2 to 8 by physical examination, ECG, hematology, serum chemistry, monitoring for injection site reaction and treatment emergent adverse events (TEAEs). Follow-up safety assessments were performed on Days 15, 22, 29, and 43.

[8] = Safety in healthy volunteers, ascending dose study
Experimental: as §4

Ac-ICV(1-Nal)QDWGAHRCT-COOH (Ac-ICV[1Nal]QDWGAHRCT-OH; not fully specified (bridges); printed as Ac-ICV(1-Nal)QDWGAHRCT-COOH; cysteine pairing not given here) [Ac V4(1-Nal)/H9A-OH]
Activity over compstatin (complement activation): 30x

Ac-ICV(2-Igl)QDWGAHRCT-CONH2 (Ac-ICV[Igl]QDWGAHRCT-NH2; not fully specified (bridges); printed as Ac-ICV(2-Igl)QDWGAHRCT-CONH2; cysteine pairing not given here) [Ac-V42Igl/H9A]
Activity over compstatin (complement activation): 39x

Ac-ICV(2-Igl)QDWGAHRCT-COOH (Ac-ICV[Igl]QDWGAHRCT-OH; not fully specified (bridges); printed as Ac-ICV(2-Igl)QDWGAHRCT-COOH; cysteine pairing not given here) [Ac-V42Igl/H9A-OH]
Activity over compstatin (complement activation): 37x

Ac-ICV(2-Nal)QDWGAHRCT-CONH2 (Ac-ICV[2Nal]QDWGAHRCT-NH2; not fully specified (bridges); printed as Ac-ICV(2-Nal)QDWGAHRCT-CONH2; cysteine pairing not given here) [Ac-V4(2-Nal)/H9A]
Activity over compstatin (complement activation): 99x

Ac-ICV(5-methyl-W)QDWGAHRCT-CONH2 (Ac-ICV[Trp(5-Me)]QDWGAHRCT-NH2; not fully specified (bridges); printed as Ac-ICV(5-methyl-W)QDWGAHRCT-CONH2; cysteine pairing not given here) [Ac-V4(5-MeW)/H9A]
Activity over compstatin (complement activation): 67x

Ac-ICV(5fW)QDWGAHRCT-CONH2 (Ac-ICV[Trp(5-F)]QDWGAHRCT-NH2; not fully specified (bridges); printed as Ac-ICV(5fW)QDWGAHRCT-CONH2; cysteine pairing not given here) [Ac-V4(5fW)/H9A]
Activity over compstatin (complement activation): 31x

Ac-ICV(Bpa)QDWGAHRCT-CONH2 (Ac-ICV[Bpa]QDWGAHRCT-NH2; not fully specified (bridges); printed as Ac-ICV(Bpa)QDWGAHRCT-CONH2; cysteine pairing not given here) [Ac-V4(Bpa)/H9A]
Activity over compstatin (complement activation): 86x

Ac-ICV(Bpa)QDWGAHRCT-COOH (Ac-ICV[Bpa]QDWGAHRCT-OH; not fully specified (bridges); printed as Ac-ICV(Bpa)QDWGAHRCT-COOH; cysteine pairing not given here) [Ac-V4(Bpa)/H9A-OH]
Activity over compstatin (complement activation): 49x

Ac-ICVVQDWGHHRCT-CONH2 [Ac-compstatin]
Activity over compstatin (complement activation): 3x

Ac-ICVWQD(5fW)GAHRCT-CONH2 (Ac-ICVWQD[Trp(5-F)]GAHRCT-NH2; not fully specified (bridges); printed as Ac-ICVWQD(5fW)GAHRCT-CONH2; cysteine pairing not given here) [Ac-V4W/W7(5fW)/H9A]
Activity over compstatin (complement activation): 121x

Ac-ICVWQDWGAHRCT-CONH2 (Ac-ICVWQDWGAHRCT-NH2; not fully specified (bridges); printed as Ac-ICVWQDWGAHRCT-CONH2; cysteine pairing not given here) [Ac-V4W/H9A]
Activity over compstatin (complement activation): 45x

Ac-ICVWQDWGAHRCdT-COOH [Ac-V4W/H9A/T13dT-OH]
Activity over compstatin (complement activation): 55x

Ac-ICVYQDWGAHRCT-CONH2 [Ac-V4Y/H9A]
Activity over compstatin (complement activation): 14x

Ac-ICV[(2-Nal)QDWGAHRCT-COOH (Ac-ICV[2Nal]QDWGAHRCT-OH; not fully specified (bridges); printed as Ac-ICV[(2-Nal)QDWGAHRCT-COOH; cysteine pairing not given here) [Ac V4(2-Nal)/H9A-OH]
Activity over compstatin (complement activation): 38x

H-GICV(5fW)QD(5fW)GAHRCTN-COOH (H-GICV[Trp(5-F)]QD[Trp(5-F)]GAHRCTN-OH; not fully specified (bridges); cysteine pairing not given here) [G/V4(5f-WV)/WV7(5fW)/H9A+N-OH]
Activity over compstatin (complement activation): 112x

H-GICV(6fW)QD(6fW)GAHRCTN-COOH (H-GICV[Trp(6-F)]QD[Trp(6-F)]GAHRCTN-OH; not fully specified (bridges); cysteine pairing not given here) [+G/V4(6fW)/W7(6fW)H9A+N-OH]
Activity over compstatin (complement activation): 126x

Poly(oxy-1,2-ethanediyl), α-hydro-ω-hydroxy-, 15,15′-diester with N-acetyl-L-isoleucyl-L-cysteinyl-L-valyl-1-methyl-L-tryptophyl-L-glutaminyl-L-α-aspartyl-L-tryptophylglycyl-L-alanyl-L-histidyl-L-arginyl-L-cysteinyl-L-threonyl-2-[2-(2-aminoethoxy)ethoxy]acetyl-N^6-carboxy-L-lysinamide cyclic (2-->12)-(disulfide) [PEG]
terminal elimination half-life ([1]; Cohort 4 (2300 mg single IV)): 11.9 days | peak concentration (Cmax), mean serum concentration ([1]; single IV 200 mg, at 1 hr post-dose (infusion start)): 61 µg/mL | peak concentration (Cmax), mean serum concentration ([1]; single IV 600 mg, at 1 hr post-dose (infusion start)): 193 µg/mL | peak concentration (Cmax), mean serum concentration ([1]; single IV 1500 mg, at 4 hrs): 542 µg/mL | peak concentration (Cmax), mean serum concentration ([1]; single IV 2300 mg, at 1 hr post-dose (infusion start)): 708 µg/mL | AH50 level from 1 hr post-dosing start ([2]; 1500 and 2300 mg single IV doses): undetectable levels | time within which decreases in mean AH50 values were detected ([2]; all PEG cohorts (200-2300 mg single IV)): ≤ 1 h | mean maximum decrease of AH50 compared to placebo ([2]; all PEG groups, p<0.0001): statistically significant larger | time for which decrease in mean AH50 was maintained ([2]; single IV 200 mg): at least 12 hrs | time for which decrease in mean AH50 was maintained ([2]; single IV 600 mg): ≥ 72 h | time for which decrease in mean AH50 was maintained ([2]; single IV 1500 mg): ≥ 144 h | Mean CH50 upon dosing ([3]; all cohorts): decreased immediately | time for which decrease in mean CH50 was retained ([3]; single IV 1500 mg): at least 48 hours | time by which mean CH50 returned to baseline ([3]; single IV 2300 mg, post-dosing start): ≤ 24 h | time within which initial rapid decrease in mean C3a levels occurred (C3a; all PEG groups): ≤ 1 h | time of trough mean C3a levels after dosing (C3a; all dose groups): ≤ 24 h | maximum mean C3a decrease from baseline (C3a; single IV 1500 mg, at 4 hours post-dosing start): 57% | patients with LDH levels decreased at day 7-12 (acute hemolysis [4]; all 13 patients, intensive SC or IV PEG): 13 patients | patients with LDH levels decreased between day 1 and day 2 (acute hemolysis [4]; all evaluable patients, intensive SC or IV PEG 1080 mg): 8 of 12 | patients with LDH levels further decreased from day 7-12 to day 14-19 (acute hemolysis [4]; all patients, intensive SC or IV PEG): 11 of 13 | patients with LDH levels further decreased from day 7-12 to day 14-19 (acute hemolysis [4]; intensive IV PEG): 3 of 4 | patients with LDH levels decreased between day 1 and day 2 (acute hemolysis [4]; intensive IV PEG (single 1080 mg dose)): 4 of 4 | patients with LDH levels further decreased from day 7-12 to day 14-19 (acute hemolysis [4]; intensive SC PEG): 7 of 9 | patients with LDH levels decreased between day 1 and day 2 (acute hemolysis [4]; intensive SC PEG (1080 mg every 24 hours for 3 doses)): 4 of 8 | mean Hb from day 1 of intensive therapy (acute hemolysis [5]): increased | patients with serious adverse events ([6]; 4 of 13 patients): 31% | patients with treatment-emergent adverse events ([6]; Nine of 13 patients): 69% | adverse events leading to treatment discontinuation [6]: None of the adverse events led to treatment discontinuation | adverse events of meningitis or thrombosis [6]: No adverse events of meningitis or thrombosis occurred | share of treatment-emergent adverse events that were mild [6]: 76% | incidence of upper respiratory infections (TEAE) [7]: 12.5% | subjects with moderate TEAE (infusion-related reaction, dizziness, clamminess, nausea) that led to study discontinuation ([8]; 2300 mg cohort, one subject, percent of the twenty subjects): 5.0% | incidence of diarrhea (TEAE) ([8]; PEG groups, n=2): 12.5% | incidence of headache (TEAE) ([8]; PEG groups, n=6): 37.5% | serious adverse events, deaths, severe TEAEs ([8]; healthy subjects, single IV 200-2300 mg): No serious adverse events, deaths, or severe TEAEs occurred
